Measured values taken from patent US20140275090A1, “BILE ACID RECYCLING INHIBITORS FOR TREATMENT OF PRIMARY SCLEROSING CHOLANGITIS AND INFLAMMATORY BOWEL DISEASE” (Lumena Pharmaceuticals, Inc., priority 2013, published 2014).
Values joined by “and” are separate entries in the source; they are usually repeats but may differ in a detail not shown here. Identical values can stand only once.

Legend:
[1] = tested on: fecal bile acids; test: Fecal bile acid excretion in ZDF rats after oral 264W94; format: in vivo, ZDF rat; settings: 0.001-10 mg/kg oral gavage twice a day, 2 weeks
Method: (§1) Male Zucker diabetic fatty rats (ZDF/GmiCrl-fa/fa) were purchased from Charles River (Raleigh, N.C.) and housed under controlled conditions (12:12 light-dark cycle, 24° C. and 50% relative humidity) with free access to rodent food (Purina 5008, Harlan Teklad, Indianapolis, Ind.). All rats arrived at seven weeks of age (±3 days). After a one-week acclimation period, rats were anesthetized with isoflurane (Abbott Laboratories, IL) and tail-vein blood samples were collected at 9 am without fasting. Blood glucose levels were measured using a glucometer (Bayer, Leverkusen, Germany). In order to ensure balanced treatment groups, ZDF rats were assigned to six treatment groups based upon baseline glucose: vehicle (0.5% HPMC, 0.1% Tween80) and five doses of 264W94 (0.001, 0.01, 0.1, 1, 10 mg/kg). All treatments were given via oral gavage twice a day and animals were followed for two weeks with blood samples collected from tail vein at the end of each week at 9 am without fasting. Fecal samples were collected for 24 hours during the second week of treatment.
(§2) Non-esterified fatty acids (NEFA), bile acids, and bile acids in fecal extraction were measured using the Olympus AU640 clinical chemistry analyzer (Beckman Coulter, Irving, Tex.).

[2] = tested on: Hemoglobin A1c (HbA1c); test: ZDF rat 3-week study: baseline-corrected percent HbA1c; format: in vivo; settings: ZDF rats, twice daily oral gavage
Method: (§3) Animals were acclimatized for 5-7 days after arrival.
(§4) Key efficacy, metabolic and liver function parameters were assessed: Total 24 hr fecal and total serum bile acid concentrations; Plasma ALP, ALT, AST, BUN, creatinine; Fasting glucose and insulin concentrations, glucose/insulin ratio, blood percent HbA1c and Oral Glucose Tolerance Test (glucose excursion, insulin, GLP-1); Plasma GLP-1, GLP-2 and FGF21 concentrations.

[3] = tested on: plasma lipase, plasma amylase; test: ZDF rat 3-week study: exocrine pancreas function (plasma lipase, amylase); format: in vivo; settings: ZDF rats; for Plasma Amylase: Week 3; for Plasma Lipase: Week 3, higher doses
Method: as §3, §4

[4] = Pharmacokinetics of [14C]LUM002 after single PO or IV administration to rats; format: in vivo, Sprague Dawley Rat
Method: To each rat either a single oral (PO; 20 mg/kg free acid) or a single intravenous (IV; 2 mg/kg free acid) dose of [^14C]LUM002 was administered. For PO and IV administration, the test substance was prepared with the adequate amount of water to reach a solution with a concentration of approximately 4 mg/g (PO) and 1 mg/g (IV). Oral administration was a gavage using a stomach tube and IV administration was a bolus injection into the tail vein. Exact doses administered to animals were calculated according to syringe weights.
The doses of radioactivity actually administered were determined by using standards prior to and after treatment of the animals. Blood—Animals were anaesthetized (Isoflurane) for blood sampling (3 animals/time point) and then euthanized by […]. Blood samples (maximal volume from each animal approx. 8 mL) were withdrawn from the abdominal aorta into containers containing a small amount of lithium heparin. and samples were centrifuged for 2 minutes at 1540 g. Aliquots (100 μL) of blood were used for hematocrit determination. Animals for the control groups (male and/or female) were used as predose animals for sampling of untreated biological samples (blood and plasma or liver, myocardium, kidneys only from male control animals). Plasma—To obtain plasma, blood samples were centrifuged for 10 minutes and stored cooled before final division.
Bioanalytical analysis −50 μL of plasma samples were placed into an 1.5 mL reaction tube. 5 μL methanol was added to each sample. For protein precipitation, 100 μL of the internal standard working solution (100 ng/mL of benzyl-13C6-LUM002 in acetonitrile) and 50 μL acetonitrile were added. In case of double blank samples, pure acetonitrile was added. Tubes were sealed and mixed thoroughly for 10 seconds. The tubes were centrifuged for 5 minutes at ≧3000 g. 50 μL of the clear supernatant was transferred into an autoinjector vial and were diluted with 50 μL deionized water. Analysis of samples was performed by using LC-MS/MS (injection volume 50-75 μL) with a lower limit of quantification in the assay of 1 ng/mL for LUM002.

[5] = tested on: total serum bile acids; test: ZDF rat 3-week study: plasma total serum bile acids; format: in vivo; settings: ZDF rats, twice daily oral gavage, Week 3
Method: as §3, §4

[6] = tested on: plasma ALP, ASAT, ALAT; test: ZDF rat 3-week study: liver function (ALP, ASAT, ALAT); format: in vivo; settings: ZDF rats, twice daily oral gavage, Week 3
Method: as §3, §4

[7] = tested on: fecal excretion of [14C]taurocholic acid (TCA); test: Fecal excretion of [14C]taurocholic acid in Syrian hamster after LUM002; format: in vivo; settings: nonfasted Golden Syrian hamsters, oral gavage, 24 h feces
Method: To study the effect of LUM002 on fecal excretion of [^14C]taurocholic acid (TCA) in the Syrian hamster in vivo, [^14C]TCA was administered intraperitoneally 1 hour before dosing the test compound. Each animal was dosed with […] [^14C]TCA. LUM002 was dosed by oral gavage (5 mL/kg per administration) in either 5% (v/v) Solutol with 0.5% hydroxyethylcellulose (HEC) or 0.5% HEC alone. The first half of dose of test compound/vehicle was given 1 hour after [^14C]TCA injection, followed by the second half of dose 7 hours after the first dose of test compound/vehicle. Feces were collected for 24 hours after [^14C]TCA administration and aliquots from feces were combusted for determination of [^14C] excretion.
The ED200 (dose which doubles the fecal excretion of [^14C] label vs. control from dose response curve, including 95% Confidence interval) was calculated from a dose response curve.

[8] = tested on: GLP-2; test: ZDF rat study: GLP-2 in plasma; format: in vivo; settings: non-fasted ZDF rats, 2 weeks treatment, higher doses
Method: as §3, §4

[9] = Pharmacokinetics of LUM002 single 100 mg oral solution in healthy male subjects; format: in vivo, human
Method: Healthy male subjects, from 18 to 45 years of age, were given a single oral solution dose (100 mg in 100 mL) of LUM002 under fasting conditions. Blood samples for the determination of LUM002 plasma concentration were collected predose and 0.5, 1, 2, 3, 4, 5, 6, 8, 10, 12, 16, 24, and 48 hours after treatment administration. Plasma was obtained by centrifugation and […] processed for protein precipitation, centrifuged again to remove the precipitate and the supernatant prepared for LC-MS/MS analysis. LUM002 plasma concentrations were determined using a validated liquid chromatography tandem mass spectrometry (LC-MS/MS) assay with a lower limit of quantification (LLOQ) of 0.1 ng/mL. LUM002 plasma concentrations were used to determine the following pharmacokinetic parameters using standard noncompartmental techniques: Cmax, Tmax, AUCslast, and, if applicable due to the low-absorbable characteristics of LUM002, also AUC, AUC0-24 and t1/2z.

[10] = tested on: plasma bile acids; test: Plasma bile acid concentrations in ZDF rats, oral gavage twice a day for 2 weeks; format: in vivo, ZDF rat
Method: as §1, with “All treatments were given via oral gavage twice a day and animals were followed for two weeks with blood samples collected from tail vein at the end of each week at 9 am without fasting. Fecal samples were collected for 24 hours during the second week of treatment.” left out
as §2
Male ZDF rats (n=4) were administered vehicle, SC-435 (1, 10 or 30 mg/kg) or LUM002 (0.3, 1, 3, 10 or 30 mg/kg) by oral gavage twice a day for 2 weeks. Plasma bile acid levels were determined at the end of the second week. […] Data are expressed as mean values ±SEM.

[11] = tested on: liver injury after partial bile duct ligation; test: Partial bile duct ligation (pBDL) in rats: liver histology and cholangiocyte mitotic figures; format: in vivo, rat; settings: for Total number of cholangiocytes in 50 fields / Total number of mitotic figures in 50 fields: pBDL rat, 10 mg/kg once daily oral gavage
Method: Rats were anesthetized with isoflurane, the common bile duct exposed by midline laparotomy and a short length of PE-10 tubing placed parallel to the bile duct. A ligature of 4-0 silk suture was tied tightly around the duct and tubing after which the tubing was removed resulting in constriction of the duct lumen without complete obstruction SC-435 was administered to the test group by once daily oral gavage (10 mg/kg) starting one day prior to pBDL surgery.
All animals were euthanized on Day 14. The liver was collected from all animals and preserved in 10% formalin. The preserved livers from all animals were processed, embedded in paraffin, sectioned and stained with hematoxylin and eosin (H&E). The resulting slides were evaluated. Microscopic findings, when present, were graded subjectively on a scale of 0 to 4 according to the intensity and extent of change, where 0=finding not present; 1=minimal; 2=mild; 3=moderate and 4=marked. Additionally, quantitation of cholangiocyte (bile duct epithelial cells) mitotic nuclei was accomplished by counting the number of mitotic cells and the total number of cholangiocytes in 50 randomly selected high-powered (40× objective) fields.

Which “elevation of fecal bile acid concentrations vs vehicle treated rats” value [1] does the source give for `CCCC[C@]1(CC)CS(=O)(=O)c2cc(OC)c(OC)cc2[C@@H](c2ccccc2)N1` [Compound 264W94] here?
The value was “up to 6.5 fold”.

With `CCCC[C@]1(CC)CS(=O)(=O)c2ccc(N(C)C)cc2[C@@H](c2cccc(NC(=O)N[C@@H]3O[C@H](COS(=O)(=O)[O-])[C@@H](O)[C@H](OCc4ccccc4)[C@H]3O)c2)[C@H]1O.CCO.O.[K+]` [LUM002, potassium((2R,3R,4S,5R,6R)-4-benzyloxy-6-{3-[3-((3S,4R,5R)-3-butyl-7-dimethylamino-3-ethyl-4-hydroxy-1,1-dioxo-2,3,4,5-tetrahydro-1H-benzo[b]thiepin-5-yl)-phenyl]-ureido}-3,5-dihydroxy-tetrahydro-pyran-2-ylmethyl)sulphate ethanolate, hydrate] as the compound, how does the “Baseline-corrected Percent Hemoglobin A1c (HbA1c)” value [2] read?
Its value is “significant dose-dependent reductions”.

And the “Plasma Amylase” value [3]?
Its value is “Neither LUM002 nor SC-435 cause a statistically significant changes”.

And the “Plasma Lipase” value [3]?
Its value is “statistically significant reductions”.

What about the AUCinf ([4]; male rat, IV bolus 2 mg/kg free acid) of the same compound?
The AUCinf was 0.9 ng·h/mL.

And the “plasma exposure, 3 female and 1 male animal out of 72” value ([4]; rat, PO 20 mg/kg, 2 or 4 h after administration)?
Its value is 1 to 5 ng/mL.

What about the “plasma exposure, all other animals” value ([4]; rat, PO 20 mg/kg, limit of quantitation 1 ng/mL) of the same compound?
The value was under 1 ng/mL.

And the dose systemically absorbed ([4]; rats)?
The dose systemically absorbed was “Less than 2%”.

And the “Plasma Total Serum Bile Acids Concentrations” value [5]?
Its value is “statistically significant reductions”.

And the “Plasma Alkaline Phosphatase (ALP)” value [6]?
The value was “significant reductions”.

What about the “Plasma Aspartate Aminotransferase (ASAT)” value [6] of the same compound?
Its value is “statistically significant reduction”.

What about the “effect on fecal excretion of bile acids” value [7] of the same compound?
The value was “significantly increased”.

What about the GLP-2 in plasma [8] of the same compound?
The GLP-2 in plasma was “significant elevations”.

And the t1/2 ([9]; 100 mg oral solution, fasting, individual subject)?
The t1/2 was 3.39 h.

What about the dose systemically absorbed ([9]; healthy male subjects, 100 mg) of the same compound?
Its dose systemically absorbed is “Less than 1%”.

What about the “Plasma bile acid levels” value ([10]; ZDF rats, 0.3, 1, 3, 10 or 30 mg/kg twice a day) of the same compound?
The value was “decreased”.

Which results are given for `CCCCC1(CCCC)CS(=O)(=O)c2ccc(N(C)C)cc2[C@@H](c2ccc(OCCCC[N+]34CCN(CC3)CC4)cc2)[C@H]1O.CS(=O)(=O)[O-]` [SC-435, 1-[4-[4-[(4R,5R)-3,3-dibutyl-7-(dimethylamino)-2,3,4,5-tetrahydro-4-hydroxy-1,1-dioxido-1-benzothiepin-5-yl]phenoxy]butyl]-4-aza-1-azoniabicyclo[2.2.2]octane methanesulfonate salt]?
Baseline-corrected Percent Hemoglobin A1c (HbA1c) [2]: significant dose-dependent reductions; Plasma Amylase [3]: Neither LUM002 nor SC-435 cause a statistically significant changes; Plasma Lipase [3]: statistically significant reductions; Hepatocyte necrosis ([11]; pBDL rat livers, Day 14): not present; bile duct proliferation, mixed inflammatory cell infiltration, spindle cell proliferation vs untreated rat livers ([11]; pBDL rat livers, Day 14): reduced incidence and intensity; hepatic necrosis and inflammatory cell infiltration ([11]; pBDL rat livers, by 14 days): less hepatic necrosis and inflammatory cell infiltration; Total number of cholangiocytes in 50 fields ([11]; Day 14, AVG): 533; Total number of mitotic figures in 50 fields ([11]; Day 14, AVG): 0; Total number of mitotic figures in 50 fields ([11]; Day 14, individual rats): 0; Total number of cholangiocytes in 50 fields ([11]; Day 14, individual rats, methanesulfonate salt, 10 mg/kg): 662 and 404; mitotic figures in livers ([11]; pBDL rats, 14 days post surgery): No mitotic figures were observed; morphologic features of liver injury associated cholestasis ([11]; partial bile duct ligation, rats): appeared to ameliorate or inhibit; Plasma Total Serum Bile Acids Concentrations [5]: statistically significant reductions; Plasma Alkaline Phosphatase (ALP) [6]: significant reductions; GLP-2 in plasma [8]: significant elevations; Plasma bile acid levels ([10]; ZDF rats, 1, 10 or 30 mg/kg twice a day): decreased
